In patent US3959272A, “Aminoalkyl esters of 2-anilino-nicotinic acids” (Societe Anonyme dite: Hexachime, priority 1972, dated 1976):

How the values were obtained:
[1] = Analgesic activity: Siegmund's test (phenylbenzoquinone painful reactions); assay type: in vivo; settings: Mus musculus, po, read-out: percentage inhibition of reactions; for inhibition in vivo at 32 mg/kg: 32 mg/kg orally; for inhibition in vivo at 64 mg/kg: 64 mg/kg orally; for inhibition in vivo at 128 mg/kg: 128 mg/kg orally; for inhibition in vivo at 256 mg/kg: 256 mg/kg orally; for inhibition in vivo at 512 mg/kg: 512 mg/kg orally
Description: This activity was measured by Siegmund's test in mice and Randall and Selitto's test in the rat.
Groups of six mice received the compound under test orally 1 hour before intraperitoneal injection of 0.2 ml of an 0.02% of solution of phenylbenzoquinone. The number of painful reactiors from the fifth to the tenth minute after the injection of phenylbenzoquinone was counted.

[2] = Escape test; assay type: in vivo; settings: Mus musculus, ip, 0.5 h, read-out: Percentage inhibition (number of attempts to escape); for change in vivo at 16 mg/kg: 16 mg/kg intraperitoneally; for change in vivo at 32 mg/kg: 32 mg/kg intraperitoneally; for change in vivo at 64 mg/kg: 64 mg/kg intraperitoneally; for change in vivo at 128 mg/kg: 128 mg/kg intraperitoneally; for change in vivo at 256 mg/kg: 256 mg/kg intraperitoneally; for change in vivo at 8 mg/kg: 8 mg/kg intraperitoneally
Description: Groups of 8 mice were placed in sub groups of 4 in an enclosure from which they could escape by an inclined plane. The number of attempts to escape during 5 minutes were counted half an hour after intraperitoneal administration of the compound under test.

[3] = Anti-inflammatory activity: oedema provoked by carragenin in the rat; assay type: in vivo; settings: po, read-out: percentage inhibition of oedema; for inhibition in vivo at 128 mg/kg: 128 mg/kg orally; for inhibition in vivo at 256 mg/kg: 256 mg/kg orally; for inhibition in vivo at 512 mg/kg: 512 mg/kg orally; for inhibition in vivo at 64 mg/kg: 64 mg/kg orally
Description: The method used was as follows.
The anti-inflammatory activity was measured on oedema provoked by carragenin in the rat. Groups of six male rats each weighing 120 to 130 g received the compound under test orally in suspension in "tween 80", half the dose being given 2 hours before and the other half 1/2 hour before the subcutaneous plantar injection of 0.05 ml of a 1 % carragenin solution. The volume of the injected paw was measured by plethysmography at regular intervals. Table 1 below gives the percentage inhibition of the oedema with reference to untreated controls.

[4] = Potentiation of stereotypes by amphetamine; assay type: in vivo, rat; settings: 5 mg/kg dexamphetamine sulphate
Description: The compound under test was administered to groups of 5 rats intraperitoneally. Thirty minutes afterwards, 5 mg/kg of dexamphetamine sulphate was injected intraperitoneally. The duration of the phenomenon is counted at regular intervals from 0 to 4 and the counts are added up.

[5] = Antagonism of convulsions produced by cardiazole; assay type: in vivo; settings: Mus musculus, ip, read-out: Percentage inhibition of tonic convulsions; for inhibition in vivo at 4 mg/kg: 4 mg/kg intraperitoneally; for inhibition in vivo at 8 mg/kg: 8 mg/kg intraperitoneally; for inhibition in vivo at 16 mg/kg: 16 mg/kg intraperitoneally; for inhibition in vivo at 32 mg/kg: 32 mg/kg intraperitoneally; for inhibition in vivo at 64 mg/kg: 64 mg/kg intraperitoneally; for inhibition in vivo at 128 mg/kg: 128 mg/kg intraperitoneally; for inhibition in vivo at 256 mg/kg: 256 mg/kg intraperitoneally
Description: Groups of 6 mice received the compound under test 30 minutes before introperitoneal injection of 160 mg/kg of cardiazole. The action of the compound under test on the tonic convulsion phase was observed.

[6] = Analgesic activity: Randall and Selitto's test (beer yeast paw, pain threshold); assay type: in vivo, rat
Description: This activity was measured by Siegmund's test in mice and Randall and Selitto's test in the rat. Groups of ten male rats each weight 120 to 140 g received by subcutaneous plantar injection 0.05 ml of a 5% aqueous suspension of beer yeast. 2 Hours after this treatment they received the compound under test orally and 1 hour after administration of this compound the paw which had been injected and the contralateral paw were subjected to increasing pressure. The appearance of the pain threshold was noted.

[7] = Solubility in water; assay type: physicochemical; settings: monohydrochloride
[8] = without yeast, 128 mg/kg orally
[9] = without yeast, 256 mg/kg orally

Row | Compound | inhibition in vivo at 32 mg/kg [1] [%] | inhibition in vivo at 64 mg/kg [1] [%] | inhibition in vivo at 128 mg/kg [1] [%] | inhibition in vivo at 256 mg/kg [1] [%] | change in vivo at 16 mg/kg [2] [%] | change in vivo at 32 mg/kg [2] [%] | change in vivo at 64 mg/kg [2] [%] | change in vivo at 128 mg/kg [2] [%] | change in vivo at 256 mg/kg [2] [%] | inhibition in vivo at 128 mg/kg [3] [%] | inhibition in vivo at 256 mg/kg [3] [%] | inhibition in vivo at 512 mg/kg [3] [%] | inhibition in vivo at 16 mg/kg [5] [%] | inhibition in vivo at 32 mg/kg [5] [%] | inhibition in vivo at 64 mg/kg [5] [%] | inhibition in vivo at 128 mg/kg [5] [%] | inhibition in vivo at 256 mg/kg [5] [%] | inhibition in vivo at 512 mg/kg [1] [%] | inhibition in vivo at 64 mg/kg [3] [%] | further results
1 | O=C(OCCN1CCOCC1)c1cccnc1Nc1ccccc1 [Example 5, β-Morpholino ethyl 2-anilino nicotinate] | 16 | 38 | 57 | 83 | -12 | -5 | -23 | -20 | -78 | 0 | 17 | 71 | 33 | 33 | 16 | 33 | 100 |  |  | Sum of the counts (stereotypes) ([4]; 16 mg/kg intraperitoneally): 14; Sum of the counts (stereotypes) ([4]; 64 mg/kg intraperitoneally): 22; Sum of the counts (stereotypes) ([4]; 256 mg/kg intraperitoneally): 44; inhibition in vivo at 4 mg/kg [5]: 0%; inhibition in vivo at 8 mg/kg [5]: 16%
2 | Cc1ccc(Cl)cc1Nc1ncccc1C(=O)OCCN1CCOCC1 [Example 8, β-Morpholino ethyl 2-(2-methyl-5-chloroanilino) nicotinate] |  |  |  | 18 |  | -25 | -52 | -62 | -83 |  | 36 |  |  | 0 | 17 | 33 | 67 | 74 | 0 | Sum of the counts (stereotypes) ([4]; 32 mg/kg intraperitoneally): 89; Sum of the counts (stereotypes) ([4]; 64 mg/kg intraperitoneally): 87; Sum of the counts (stereotypes) ([4]; 128 mg/kg intraperitoneally): 161; Sum of the counts (stereotypes) ([4]; 256 mg/kg intraperitoneally): 195; inhibition in vivo at 512 mg/kg ([5]; 512 mg/kg intraperitoneally): 100%
3 | Cc1cccc(Nc2ncccc2C(=O)OCCN2CCN(C)CC2)c1C [Example 4, β-(N-methylpiperazino)ethyl nixylate] | 8 | 33 | 69 | 84 | -11 | -37 | -61 | -95 |  | 50 | 62 |  | 0 | 0 | 58 | 91 |  |  | 0 | percentage increase of pain threshold ([6]; with yeast, 16 mg/kg orally): 0%; percentage increase of pain threshold ([6]; with yeast, 32 mg/kg orally): 31%; percentage increase of pain threshold ([6]; with yeast, 64 mg/kg orally): 27%; percentage increase of pain threshold ([6]; with yeast, 128 mg/kg orally): 61%; percentage increase of pain threshold ([6]; with yeast, 256 mg/kg orally): 16%; percentage increase of pain threshold ([6]; without yeast, 16 mg/kg orally): 8%; percentage increase of pain threshold ([6]; without yeast, 32 mg/kg orally): 30%; percentage increase of pain threshold ([6]; without yeast, 64 mg/kg orally): 46%; percentage increase of pain threshold [6, 8]: 38%; percentage increase of pain threshold [6, 9]: 10%; change in vivo at 8 mg/kg [2]: 2%
4 | Cc1cccc(Nc2ncccc2C(=O)OCCN2CCCCC2)c1C [Example 2, β-Piperidino ethyl nixylate] | 24 | 48 | 69 |  | -21 | -43 | -80 | -100 |  | 42 | 70 |  | 5 | 22 | 72 | 100 |  |  | 6 | percentage increase of pain threshold ([6]; with yeast, 64 mg/kg orally): 5%; percentage increase of pain threshold ([6]; with yeast, 128 mg/kg orally): 30%; percentage increase of pain threshold ([6]; with yeast, 256 mg/kg orally): 87%; percentage increase of pain threshold ([6]; without yeast, 64 mg/kg orally): 0%; percentage increase of pain threshold [6, 8]: 52%; percentage increase of pain threshold [6, 9]: 33%; change in vivo at 8 mg/kg [2]: 6%; inhibition in vivo at 4 mg/kg [5]: 0%; inhibition in vivo at 8 mg/kg [5]: 16%
5 | Cc1cccc(Cl)c1Nc1ncccc1C(=O)OCCN1CCOCC1 [Example 9, β-Morpholino ethyl 2-(2-chloro-6-methylanilino) nicotinate] | 8 | 8 | 37 | 66 | -19 | -22 | -59 | -100 |  |  | 39 |  |  |  | 0 | 100 |  |  | 20 | solubility in water [7]: soluble in water; inhibition in vivo at 16 mg/kg ([1]; 16 mg/kg orally): 14%; inhibition in vivo at 16 mg/kg ([3]; 16 mg/kg orally): 7%
6 | Cc1cccc(C)c1Nc1ncccc1C(=O)OCCN1CCOCC1 [Example 6, β-Morpholino ethyl 2-(2,6-dimethylanilino) nicotinate] |  | 23 | 39 | 69 | -13 | -20 | -35 | -74 | -100 | 13 | 36 | 80 |  |  |  |  |  | 100 | 0 | 
7 | Cc1ccc(Nc2ncccc2C(=O)OCCN2CCOCC2)cc1Cl [Example 7, β-Morpholino ethyl 2-(3-chloro-4-methylanilino) nicotinate] | 14 | 33 | 55 | 55 | -48 |  | -62 |  | -96 | 2 | 29 | 53 |  |  | 0 | 9 | 59 | 77 |  | 
